These results are taken from patent US9247741B2, “Use of macrocyclic picolinamides as fungicides” (DOW AGROSCIENCES LLC, priority 2013, dated 2016).

Common to all, as to assay type: in vivo
The test system of experiment [1] is Leptosphaeria nodorum. Put plainly: Wheat glume blotch (LEPTNO) disease control. To be noted: Parastagonospora nodorum, 24 h, 1 Day Protectant, read-out: LEPTNO disease control rating. On the procedure: Technical grades of materials were dissolved in acetone, which were then mixed with nine volumes of water containing 110 ppm Triton X-100. The fungicide solutions were applied onto wheat seedlings using an automated booth sprayer to run-off. All sprayed plants were allowed to air dry prior to further handling. All fungicides were evaluated using the aforementioned method for their activity vs. all target diseases. Wheat leaf blotch and brown rust activity were also evaluated using track spray applications, in which case the fungicides were formulated as EC formulations, containing 0.1% Trycol 5941 in the spray solutions. Wheat plants (variety Yuma) were grown from seed in a greenhouse in 50% mineral soil/50% soil-less Metro mix until the first leaf was fully emerged, with 7-10 seedlings per pot. These plants were inoculated with an aqueous spore suspension of Septoria tritici either prior to or after fungicide treatments. After inoculation the plants were kept in 100% relative humidity (one day in a dark dew chamber followed by two to three days in a lighted dew chamber at 20° C.) to permit spores to germinate and infect the leaf. The plants were then transferred to a greenhouse set at 20° C. for disease to develop. When disease symptoms were fully expressed on the l^st leaves of untreated plants, infection levels were assessed on a scale of 0 to 100 percent disease severity. Percent disease control was calculated using the ratio of disease severity on treated plants relative to untreated plants. Evaluation of Fungicidal Activity: Wheat Glume Blotch (Leptosphaeria nodorum; Bayer Code […]) Wheat plants (variety Yuma) were grown from seed in a greenhouse in 50% mineral soil/50% soil-less Metro mix until the first leaf was fully emerged, with 7-10 seedlings per pot. These plants were inoculated with an aqueous spore suspension of Leptosphaeria nodorum 24 hr after fungicide treatments. After inoculation the plants were kept in 100% relative humidity (one day in a dark dew chamber followed by two days in a lighted dew chamber at 20° C.) to permit spores to germinate and infect the leaf. The plants were then transferred to a greenhouse set at 20° C. for disease to develop. Fungicide formulation, application and disease assessment followed the procedures as described in the Example A.

The test system of experiment [2] is Erysiphe cichoracearum. Put plainly: Powdery mildew of cucumber (ERYSCI) disease control. To be noted: Golovinomyces cichoracearum, 24 h, 1 Day Protectant, read-out: ERYSCI disease control rating. On the procedure: Technical grades of materials were dissolved in acetone, which were then mixed with nine volumes of water containing 110 ppm Triton X-100. The fungicide solutions were applied onto wheat seedlings using an automated booth sprayer to run-off. All sprayed plants were allowed to air dry prior to further handling. All fungicides were evaluated using the aforementioned method for their activity vs. all target diseases. Wheat leaf blotch and brown rust activity were also evaluated using track spray applications, in which case the fungicides were formulated as EC formulations, containing 0.1% Trycol 5941 in the spray solutions. Wheat plants (variety Yuma) were grown from seed in a greenhouse in 50% mineral soil/50% soil-less Metro mix until the first leaf was fully emerged, with 7-10 seedlings per pot. These plants were inoculated with an aqueous spore suspension of Septoria tritici either prior to or after fungicide treatments. After inoculation the plants were kept in 100% relative humidity (one day in a dark dew chamber followed by two to three days in a lighted dew chamber at 20° C.) to permit spores to germinate and infect the leaf. The plants were then transferred to a greenhouse set at 20° C. for disease to develop. When disease symptoms were fully expressed on the l^st leaves of untreated plants, infection levels were assessed on a scale of 0 to 100 percent disease severity. Percent disease control was calculated using the ratio of disease severity on treated plants relative to untreated plants. Evaluation of Fungicidal Activity: Powdery Mildew of Cucumber (Erysiphe cichoracearum; Bayer Code […]) Cucumber seedlings (variety Bush Pickle) were grown in soil-less Metro mix, with one plant per pot, and used in the test when 12 to 14 days old. Plants were inoculated with a spore suspension 24 hr following fungicide treatments. After inoculation the plants remained in the greenhouse set at 20° C. until disease was fully expressed. Fungicide formulation, application and disease assessment on the sprayed leaves followed the procedures as described in the Example A.

Experiment [3] has as its system Alternaria solani. In words: Tomato early blight (ALTESO) disease control. To be noted: 24 h, 1 Day Protectant, read-out: ALTESO disease control rating. The method, then:
Technical grades of materials were dissolved in acetone, which were then mixed with nine volumes of water containing 110 ppm Triton X-100. The fungicide solutions were applied onto wheat seedlings using an automated booth sprayer to run-off. All sprayed plants were allowed to air dry prior to further handling. All fungicides were evaluated using the aforementioned method for their activity vs. all target diseases. Wheat leaf blotch and brown rust activity were also evaluated using track spray applications, in which case the fungicides were formulated as EC formulations, containing 0.1% Trycol 5941 in the spray solutions. Wheat plants (variety Yuma) were grown from seed in a greenhouse in 50% mineral soil/50% soil-less Metro mix until the first leaf was fully emerged, with 7-10 seedlings per pot. These plants were inoculated with an aqueous spore suspension of Septoria tritici either prior to or after fungicide treatments. After inoculation the plants were kept in 100% relative humidity (one day in a dark dew chamber followed by two to three days in a lighted dew chamber at 20° C.) to permit spores to germinate and infect the leaf. The plants were then transferred to a greenhouse set at 20° C. for disease to develop. When disease symptoms were fully expressed on the l^st leaves of untreated plants, infection levels were assessed on a scale of 0 to 100 percent disease severity. Percent disease control was calculated using the ratio of disease severity on treated plants relative to untreated plants. Evaluation of Fungicidal Activity: Tomato Early Blight (Alternaria solani; Bayer Code […]) Tomato plants (variety Outdoor girl) were propagated in soil-less Metro mix, with each pot having one plant, and used when 12 to 14 days old. Test plants were inoculated with an aqueous spore suspension of Alternaria solani 24 hr after fungicide treatments. After inoculation the plants were kept in 100% relative humidity (one day in a dark dew chamber followed by two to three days in a lighted dew chamber at 20° C.) to permit spores to germinate and infect the leaf. The plants were then transferred to a growth room at 22° C. for disease to develop. Fungicide formulation, application and disease assessment on the sprayed leaves followed the procedures as described in the Example A.

Experiment [4] relates to Magnaporthe grisea; Anamorph: Pyricularia oryzae. To be noted: 1 Day Protectant, 100 ppm, rice.

Molecules are shown by their SMILES.

In the case of `CCCO[C@H]1CCC[C@H](NC(=O)c2nccc(OC)c2OCOC(C)=O)C(=O)O[C@@H](C)[C@@H]1CCC(C)C` [Compound 25, ((2-(((3S,7S,8S,9S)-8-isopentyl-9-methyl-2-oxo-7-propoxyoxonan-3-yl)carbamoyl)-4-methoxypyridin-3-yl)oxy)methyl acetate], the pest or weed control at 100 ppm in experiment [1] is greater than 70%; in experiment [2] it was less than 70%; in experiment [3], greater than 70%.
With `CCCC[C@H]1[C@H](C)OC(=O)[C@@H](NC(=O)c2nccc(OC)c2OCOC(C)=O)CCC[C@@H]1Oc1ccccc1` [Compound 33], the pest or weed control at 100 ppm in experiment [1], in experiment [2] and in experiment [3] was greater than 70% each time. Besides, the “PYRIOR disease control rating” value in experiment [4] is given as “A (>70)”.
In the case of `COc1ccnc(C(=O)N[C@H]2CCC[C@H](Oc3ccccc3)[C@@H](CCC(C)C)[C@H](C)OC2=O)c1OC(C)=O` [Compound 36], the pest or weed control at 100 ppm in experiment [1], in experiment [2] and in experiment [3] was greater than 70% each time.
Take `COc1ccnc(C(=O)N[C@H]2CCC[C@H](Oc3ccccc3)[C@@H](CCC(C)C)[C@H](C)OC2=O)c1OCOC(C)=O` [Compound 40]: the pest or weed control at 100 ppm in experiment [1], in experiment [2] and in experiment [3] was greater than 70% in each case. In addition, in experiment [4], the “PYRIOR disease control rating” value is listed as “A (>70)”.
With `COc1ccnc(C(=O)N[C@H]2CCC[C@H](OCC3CC3)[C@@H](Cc3ccc(F)cc3)[C@H](C)OC2=O)c1OCOC(C)=O` [Compound 61], the values for the pest or weed control at 100 ppm in experiment [1], in experiment [2] and in experiment [3] were greater than 70%, less than 70% and less than 70%, respectively. Also, the “PYRIOR disease control rating” value in experiment [4] is listed as “A (>70)”.
For the compound `CCCO[C@H]1CCC[C@H](NC(=O)c2nccc(OC)c2OC(C)=O)C(=O)O[C@@H](C)[C@@H]1Cc1ccccc1` [Compound 70], the results for the pest or weed control at 100 ppm in experiment [1], in experiment [2] and in experiment [3] were greater than 70%, less than 70% and greater than 70%, respectively. Besides, in experiment [4], the “PYRIOR disease control rating” value is “A (>70)”.
As for `CCCC[C@H]1[C@H](C)OC(=O)[C@@H](NC(=O)c2nccc(OC)c2OCOC(C)=O)CCC[C@@H]1OCC1CC1` [Compound 73], the pest or weed control at 100 ppm in experiment [1] is greater than 70%; in experiment [2], less than 70%; in experiment [3] it was less than 70%. The “PYRIOR disease control rating” value in experiment [4] is “A (>70)”.
As to `CCCO[C@H]1CCC[C@H](NC(=O)c2nccc(OC)c2OC(C)=O)C(=O)O[C@@H](C)[C@@H]1CCC(C)C` [Compound 74, 2-(((3S,7S,8S,9S)-8-isopentyl-9-methyl-2-oxo-7-propoxyoxonan-3-yl)carbamoyl)-4-methoxypyridin-3-yl acetate], the pest or weed control at 100 ppm in experiment [1], in experiment [2] and in experiment [3] was greater than 70% in each case. Besides, the “PYRIOR disease control rating” value in experiment [4] is on record as “A (>70)”.
